From PubChem BioAssay AID1918956 (Molecular Pharmacology Branch, DTP, NCI, 2023)
Several values for one entry are separate records, joined by “and”; a condition that tells them apart may be missing. Equal values may be shown once.

Tested on: OVCAR-5 complex spheroids, viability
Experiment: Anticancer human tumor OVCAR-5 cell line growth inhibition;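 note: spheroids exposed to agents for seven days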;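 for viability, T/C: 100% = DMSO vehicle control wells viability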
Details: for viability, T/C: stronger effect = lower value
Source text: Multicellular complex tumor spheroid response to LSD1 Inhibitor Iadademstat in combination with a variety of drugs and investigational agents in selected tumor cell lines
The current study was undertaken to assess response to LSD1 inhibitors in combination with standard-of-care drugs and investigational agents in solid tumor complex spheroid models as well as in the K-562 leukemia. Complex spheroids include a stromal component modeled by human endothelial cells (HUVEC) and fibroblasts modeled by human mesenchymal stem cells (MSCs). The concentration ranges selected for each drug and investigational agent were based upon clinically achievable concentrations if the clinical Cmax of the agent was known.
Compounds. The drugs and investigational agents used in this study are listed on Table 1. All of the agents used, including staurosporine (NSC755774) and gemcitabine (NSC613327), were obtained from the Developmental Therapeutics Program, NCI. FDA-approved anticancer drugs are available from the NCI at http://dtp.nci.nih.gov/branches/dscb/oncology_drugset_explanation.html. Drugs and investigational agents were >95% pure by proton nuclear magnetic resonance (NMR) and liquid chromatography/mass spectrometry (LC/MS). Stock solutions were prepared at 400x in DMSO, stored at -70 degrees C, and diluted in fresh medium prior to their use. The final concentration of DMSO in cell culture wells never exceeded 0.25% (v/v). The FDA-approved anticancer drug set is available from the Developmental Therapeutics Program at https://dtp.cancer.gov/organization/dscb/obtaining/available_plates.htm. All drugs and investigational agents were tested over a range starting from a high concentration at or near the clinical Cmax and decreasing in half-log increments. If the clinical Cmax for an agent had not been determined, the highest concentration tested was 10 microM.
Cell Lines. The patient-derived cancer cell (PDC) lines: 292921-168-R-J2-PDC, K24384-001-R-PDC, and 521955-158-R2-J5-PDC pancreatic carcinomas, 556581-035-R-J1 ovarian carcinoma, 324938-238-R-J1-PDC, 855422-203-R-J1-PDC and 883617-216-R-J1-PDC urothelial bladder carcinomas, 743489-274-T-PDC renal cell carcinoma, 138582-R-J1 Merkel cell tumor, K60290-347-R-J1 and K57222-313-R-J1-PDC glioblastomas, 653999-131-R-J2-PDC, LG0703-F948-PDC, and 349418-098-R-PDC non-small cell lung carcinomas, 885512-296-R-J2-PDC, 171881-019-R-J1-PDC breast carcinomas and 186277-243-T-J2-PDC and 233499-124-R-J2-PDC colon carcinomas were obtained from the NCI Patient-Derived Models Repository (PDMR, https://pdmr.cancer.gov). The established cell lines NCI/ADR-RES (RRID:CVCL_14520 and OVCAR-5 (RRID:CVCL_1628) ovarian carcinomas, 786-O (RRID:CVCL_1051) and A498 […] renal cell carcinoma, NCI-H211 (ATCC, cat. CRL-5824; RRID:CVCL_1529), NCI-H196 (ATCC, cat. CRL-5823, RRID:CVCL_1509), SW 1271 (ATCC, cat. CRL-2177, RRID:CVCL_1716) and NCI-H1876 (ATCC, cat. CRL-5902, RRID:CVCL_1503) small cell lung carcinomas, MDA-MB-231 (RRID:CVCL_0062) and MDA-MB-468 (RRID:CVCL_0419)breast carcinomas (10-12). Pooled donor human umbilical vein endothelial cells (HUVEC, Lonza, cat. CC-2519) and human mesenchymal stem cells (hMSC, Lonza, cat. PT-2501) were purchased from Lonza (Walkersville, MD).
Cell Culture. All cells were maintained in an incubator at 37 degrees C and 5% CO2 with 95% humidity. The PDC lines were cultured according to standard operating procedures established by the NCI PDMR (https://pdmr.cancer.gov). Briefly all PDCs were thawed and cultured in Matrigel-coated flasks prepared with a working solution of 1X Ham's F-12 nutrient mix, without supplementation (Invitrogen, Waltham, MA, cat. 11765054), 100 U/mL penicillin-streptomycin (Invitrogen, cat. 15140122), and 2.5% Matrigel (Corning Inc., Corning, NY, cat. 354248) for the first three passages. […]

Q: For `COc1cc(Nc2ncc3c(n2)-c2ccc(Cl)cc2C(c2c(F)cccc2OC)=NC3)ccc1C(=O)O` + NC1CC1c1ccc(-c2cccc(O)c2)cc1, which IC50 (curve of first compound, second compound 0.1 µM) is on record?
A: 86.2 nM

Q: And the IC50 (curve of first compound, second compound 0.316 µM)?
A: 98.9 nM

Q: What about the IC50 (curve of first compound, second compound 1 µM) of the same molecule?
A: 62.3 nM

Q: And the IC50 (curve of first compound, second compound 3.16 µM)?
A: 54.5 nM

Q: What about the IC50 (curve of first compound, second compound 10 µM) of the same molecule?
A: 47.7 nM

Q: What about the viability, T/C (second compound 0.1 µM, first compound 0.00316 µM) of the same molecule?
A: 76.9%

Q: What about the viability, T/C (second compound 0.1 µM, first compound 0.01 µM) of the same molecule?
A: 73.1%

Q: What about the viability, T/C (second compound 0.1 µM, first compound 0.0316 µM) of the same molecule?
A: 60.4%

Q: What about the viability, T/C (second compound 0.1 µM, first compound 0.1 µM) of the same molecule?
A: 47.3%

Q: And the viability, T/C (second compound 0.1 µM, first compound 0.316 µM)?
A: 47.1%

Q: What about the viability, T/C (second compound 0.1 µM, first compound 1 µM) of the same molecule?
A: 39.8%

Q: And the viability, T/C (second compound 0.316 µM, first compound 0.00316 µM)?
A: 88.9%

Q: What about the viability, T/C (second compound 0.316 µM, first compound 0.01 µM) of the same molecule?
A: 84.4%

Q: And the viability, T/C (second compound 0.316 µM, first compound 0.0316 µM)?
A: 63.9%

Q: What about the viability, T/C (second compound 0.316 µM, first compound 0.1 µM) of the same molecule?
A: 50.1%

Q: And the viability, T/C (second compound 0.316 µM, first compound 0.316 µM)?
A: 49.6%

Q: And the viability, T/C (second compound 0.316 µM, first compound 1 µM)?
A: 44.6%

Q: What about the viability, T/C (second compound 1 µM, first compound 0.00316 µM) of the same molecule?
A: 76.1%

Q: And the viability, T/C (second compound 1 µM, first compound 0.01 µM)?
A: 82.1%

Q: And the viability, T/C (second compound 1 µM, first compound 0.0316 µM)?
A: 57.4%

Q: What about the viability, T/C (second compound 1 µM, first compound 0.1 µM) of the same molecule?
A: 46.4%

Q: What about the viability, T/C (second compound 1 µM, first compound 0.316 µM) of the same molecule?
A: 47.8%

Q: And the viability, T/C (second compound 1 µM, first compound 1 µM)?
A: 40.1%

Q: What about the viability, T/C (second compound 3.16 µM, first compound 0.00316 µM) of the same molecule?
A: 81.3%

Q: And the viability, T/C (second compound 3.16 µM, first compound 0.01 µM)?
A: 72%

Q: And the viability, T/C (second compound 3.16 µM, first compound 0.0316 µM)?
A: 53.6%

Q: And the viability, T/C (second compound 3.16 µM, first compound 0.1 µM)?
A: 46.1%

Q: And the viability, T/C (second compound 3.16 µM, first compound 0.316 µM)?
A: 44.3%

Q: And the viability, T/C (second compound 3.16 µM, first compound 1 µM)?
A: 42.1%

Q: And the viability, T/C (second compound 10 µM, first compound 0.00316 µM)?
A: 87.6%

Q: And the viability, T/C (second compound 10 µM, first compound 0.01 µM)?
A: 72%

Q: And the viability, T/C (second compound 10 µM, first compound 0.0316 µM)?
A: 50.7%

Q: And the viability, T/C (second compound 10 µM, first compound 0.1 µM)?
A: 50.3%

Q: And the viability, T/C (second compound 10 µM, first compound 0.316 µM)?
A: 49.7%

Q: And the viability, T/C (second compound 10 µM, first compound 1 µM)?
A: 43.7%

Q: Which results are given for `CC1COCCN1c1cc(-c2ccnn2C)c2ccnc(-c3ccn[nH]3)c2n1` (configuration not stated)?
A: viability, T/C (compound 0.00316 µM): 105% and 92.5%; viability, T/C (compound 0.01 µM): 86.5% and 81.7%; viability, T/C (compound 0.0316 µM): 58.9% and 50.4%; viability, T/C (compound 0.1 µM): 39.9% and 36.2%; viability, T/C (compound 0.316 µM): 34.4% and 32.6%; viability, T/C (compound 1 µM): 32.2% and 27%; IC50 (curve of compound): 54.5 nM and 35.5 nM
